# Results: patent US20170029383A1, “Diaminotriazine Derivatives as Herbicides” (BASF SE, priority 2014, published 2017)
# Assays:
# Test in all cases: greenhouse experiment, pre-emergence treatment
# Conditions in all cases: pre-emergence method, application rate 0.500 kg/ha; scale from 0 to 100
# [1] = tested on: SETFA; type: in vivo, Setaria faberi
# Excerpt: (§1) The seeds of the test plants were sown separately for each species. For the pre-emergence treatment, the active ingredients, which had been suspended or emulsified in water, were applied directly after sowing by means of finely distributing nozzles. The containers were irrigated gently to promote germination and growth and subsequently covered with transparent plastic hoods until the plants had rooted. This cover caused uniform germination of the test plants, unless this had been impaired by the active ingredients. Depending on the species, the plants were kept at 10-25° C. or 20-35° C., respectively. The test period extended over 2 to 4 weeks. During this time, the plants were tended, and their response to the individual treatments was evaluated. Evaluation was carried out using a scale from 0 to 100. 100 means no emergence of the plants, or complete destruction of at least the aerial moieties, and 0 means no damage, or normal course of growth. A moderate herbicidal activity is given at values of at least 60, a good herbicidal activity is given at values of at least 70, and a very good herbicidal activity is given at values of at least 85. The plants used in the greenhouse experiments were of the following species: [table]
# [2] = tested on: AMARE; type: in vivo, Amaranthus retroflexus
# Excerpt: as §1
# [3] = tested on: ABUTH; type: in vivo, Abutilon theophrasti
# Excerpt: as §1
structure (smiles),measurement,setting,value
"CC(C)Oc1cccc(F)c1Nc1nc(N)nc(C(C)(C)F)n1 [Example 1, N2-(2-fluoro-6-isopropoxy-phenyl)-6-(1-fluoro-1-methyl-ethyl)-1,3,5-triazine-2,4-diamine]",herbicidal activity against SETFA,[1],very good (a very good herbicidal activity is given at values of at least 85)
same,herbicidal activity against AMARE,[2],very good (a very good herbicidal activity is given at values of at least 85)
same,herbicidal activity against ABUTH,[3],very good (a very good herbicidal activity is given at values of at least 85)
